{
  "source": "ChEMBL document CHEMBL4028815",
  "about": "“Novel phosphonate analogs of sulforaphane: Synthesis, in vitro and in vivo anticancer activity” (Eur J Med Chem, 2017)",
  "key": {"[1]": {"system": "LoVo/DX", "assay": "Induction of apoptosis in human LoVo/DX cells assessed as late apoptotic cells at 15 uM after 24 hrs by APC-Annexin-V/propidium iodide staining based flow cytometric method relative to control", "format": "functional"}, "[2]": {"system": "LoVo", "assay": "Induction of apoptosis in human LoVo cells assessed as increase in caspase3/7 activity at 15 uM using Ac-DEVD-ACC as substrate pretreated for 24 hrs followed by substrate addition measured for 2 hrs by fluorescence assay relative to control", "format": "functional"}, "[3]": {"system": "Mus musculus", "assay": "Toxicity in BALB/c mdb mouse implanted with mouse 4T1 cells assessed as body weight loss at 300 umol/kg, ip administered on day 14 post cell innoculum", "format": "organism-based", "details": "in vivo"}, "[4]": {"system": "Mus musculus", "assay": "Toxicity in BALB/c mdb mouse implanted with mouse 4T1 cells assessed as hematocrit at 300 umol/kg, ip administered five times weekly measured at 29 day post cell innoculum (reference value: 39.9 +/- 3.7 %)", "format": "organism-based", "details": "in vivo, 696 h"}, "[5]": {"system": "Mus musculus", "assay": "Nephrotoxicity in BALB/c mdb mouse implanted with mouse 4T1 cells assessed as kidney weight at 300 umol/kg, ip administered five times weekly measured at 29 day post cell innoculum (reference value: 0.136 +/- 0.006 g)", "format": "toxicity, organism-based", "details": "in vivo, 696 h"}, "[6]": {"system": "4T1", "assay": "Anti-tumor activity against mouse 4T1 cells implanted in BALB/c mdb mouse assessed as tumor growth inhibition at 300 umol/kg, ip administered five times weekly measured on day 29 post cell innoculum relative to control", "format": "functional", "details": "4T1, ip, 696 h, read-out: TGI"}, "[7]": {"system": "Mus musculus", "assay": "Toxicity in BALB/c mdb mouse implanted with mouse 4T1 cells assessed as serum PLT level at 300 umol/kg, ip administered five times weekly measured at 29 day post cell innoculum (reference value: 972 +/- 157 10^3/uL)", "format": "organism-based", "details": "in vivo, 696 h"}, "[8]": {"system": "Mus musculus", "assay": "Toxicity in BALB/c mdb mouse implanted with mouse 4T1 cells assessed as body weight loss at 300 umol/kg, ip administered five times weekly measured on day 11 post cell innoculum", "format": "organism-based", "details": "in vivo"}, "[9]": {"system": "LoVo", "assay": "Induction of apoptosis in human LoVo cells assessed as necrotic cells at 15 uM after 24 hrs by APC-Annexin-V/propidium iodide staining based flow cytometric method (reference value: 10%)", "format": "functional"}, "[10]": {"system": "Mus musculus", "assay": "Toxicity in BALB/c mdb mouse implanted with mouse 4T1 cells assessed as hemoglobin level at 300 umol/kg, ip administered five times weekly measured at 29 day post cell innoculum (reference value: 15.1 +/- 1.5 g/dl)", "format": "organism-based", "details": "in vivo, 696 h"}, "[11]": {"system": "4T1", "assay": "Anti-tumor activity against mouse 4T1 cells implanted in BALB/c mdb mouse assessed as lung metastasis at 300 umol/kg, ip administered five times weekly measured at 29 days post cell innoculum (reference value: 56 +/- 25)", "format": "functional"}, "[12]": {"system": "Mus musculus", "assay": "Toxicity in BALB/c mdb mouse implanted with mouse 4T1 cells assessed as spleen weight at 300 umol/kg, ip administered five times weekly measured at 29 day post cell innoculum (reference value: 0.603 +/- 0.133 g)", "format": "organism-based", "details": "in vivo, 696 h"}, "[13]": {"system": "Mus musculus", "assay": "Toxicity in BALB/c mdb mouse implanted with mouse 4T1 cells assessed as serum AST level at 300 umol/kg, ip administered five times weekly measured at 29 day post cell innoculum (reference value: 136 +/- 10.3 U/L)", "format": "organism-based", "details": "in vivo, 696 h"}, "[14]": {"system": "LoVo", "assay": "Induction of apoptosis in human LoVo cells assessed as loss of mitochondrial membrane potential at 15 uM after 24 hrs by JC-1 staining based flow cytometric method relative to control", "format": "functional"}, "[15]": {"system": "Mus musculus", "assay": "Toxicity in BALB/c mdb mouse implanted with mouse 4T1 cells assessed as serum urea level at 300 umol/kg, ip administered five times weekly measured at 29 day post cell innoculum (reference value: 3.8 +/- […])", "format": "organism-based", "details": "in vivo, 696 h"}, "[16]": {"system": "LoVo", "assay": "Cell cycle arrest in human LoVo cells at 15 uM after 24 hrs by propidium iodide staining based flow cytometric method", "format": "functional"}, "[17]": {"system": "4T1", "assay": "Anti-tumor activity against mouse 4T1 cells implanted in BALB/c mdb mouse assessed as tumor growth inhibition at 300 umol/kg, ip administered five times weekly measured on day 15 post cell innoculum relative to control", "format": "functional", "details": "4T1, ip, 360 h, read-out: TGI"}, "[18]": {"system": "LoVo", "assay": "Induction of apoptosis in human LoVo cells assessed as increase in early apoptotic cells at 15 uM after 24 hrs by APC-Annexin-V/propidium iodide staining based flow cytometric method relative to control", "format": "functional"}, "[19]": {"system": "Mus musculus", "assay": "Toxicity in BALB/c mdb mouse implanted with mouse 4T1 cells assessed as lung weight at 300 umol/kg, ip administered five times weekly measured at 29 day post cell innoculum (reference value: 0.2 +/- 0.018 g)", "format": "organism-based", "details": "in vivo, 696 h"}, "[20]": {"system": "Mus musculus", "assay": "Toxicity in BALB/c mdb mouse implanted with mouse 4T1 cells assessed as RBC level at 300 umol/kg, ip administered five times weekly measured at 29 day post cell innoculum (reference value: 8.6 +/- 0.9 10^6/uL)", "format": "organism-based", "details": "in vivo, 696 h"}, "[21]": {"assay": "Induction of apoptosis in human LoVo/DX cells assessed as loss of mitochondrial membrane potential at 15 uM after 24 hrs by JC-1 staining based flow cytometric method relative to control", "format": "functional"}, "[22]": {"system": "LoVo", "assay": "Induction of apoptosis in human LoVo cells assessed as late apoptotic cells at 15 uM after 24 hrs by APC-Annexin-V/propidium iodide staining based flow cytometric method relative to control", "format": "functional"}, "[23]": {"system": "Mus musculus", "assay": "Toxicity in BALB/c mdb mouse implanted with mouse 4T1 cells assessed as serum creatinine level at 300 umol/kg, ip administered five times weekly measured at 29 day post cell innoculum (reference value: 9.3 +/- 1.2 umol/L)", "format": "organism-based", "details": "in vivo, 696 h"}, "[24]": {"system": "Mus musculus", "assay": "Toxicity in BALB/c mdb mouse implanted with mouse 4T1 cells assessed as serum ALT level at 300 umol/kg, ip administered five times weekly measured at 29 day post cell innoculum (reference value: 23.8 +/- 2.2 U/L)", "format": "organism-based", "details": "in vivo, 696 h"}, "[25]": {"system": "Mus musculus", "assay": "Toxicity in BALB/c mdb mouse implanted with mouse 4T1 cells assessed as WBC level at 300 umol/kg, ip administered five times weekly measured at 29 day post cell innoculum (reference value: 212.3 +/- 82.8 10^3/uL)", "format": "organism-based", "details": "in vivo, 696 h"}, "[26]": {"assay": "Induction of apoptosis in human LoVo/DX cells assessed as increase in caspase3/7 activity at 15 uM using Ac-DEVD-ACC as substrate pretreated for 24 hrs followed by substrate addition measured for 2 hrs by fluorescence assay relative to control", "format": "functional"}, "[27]": {"system": "Mus musculus", "assay": "Hepatotoxicity in BALB/c mdb mouse implanted with mouse 4T1 cells assessed as liver weight at 300 umol/kg, ip administered five times weekly measured at 29 day post cell innoculum (reference value: 1.2 +/- 0.13 g)", "format": "toxicity, organism-based", "details": "in vivo, 696 h"}},
  "note": "The source made the active and inactive calls. The rule behind the calls is not given here.",
  "data": [
    {"smiles": "S=C=NCc1ccccc1", "note": "[BENZYL ISOTHIOCYANATE]", "values": [
      {"measurement": "Activity", "setting": "[1]", "result": "Active"},
      {"measurement": "fold change (FC)", "setting": "[2]", "result": 11},
      {"measurement": "Activity", "setting": "[3]", "result": "Non-Toxic"},
      {"measurement": "Activity", "setting": "[4]", "result": 45.1, "unit": "%"},
      {"measurement": "Activity", "setting": "[5]", "result": 0.13, "unit": "g"},
      {"measurement": "inhibition in vivo at 300 µmol/kg", "setting": "[6]", "result": 26.8, "unit": "%"},
      {"measurement": "Activity", "setting": "[7]", "result": 871, "unit": "×10³ /uL"},
      {"measurement": "Activity", "setting": "[8]", "result": "Toxic"},
      {"measurement": "Activity", "setting": "[9]", "result": "Active"},
      {"measurement": "Activity", "setting": "[10]", "result": 16, "unit": "g/dL"},
      {"measurement": "Activity", "setting": "[11]", "result": 36},
      {"measurement": "Activity", "setting": "[12]", "result": 0.428, "unit": "g"},
      {"measurement": "Activity", "setting": "[13]", "result": 158.6, "unit": "U/L"},
      {"measurement": "Activity", "setting": "[14]", "result": 67.6, "unit": "%"},
      {"measurement": "Activity", "setting": "[15]", "result": 5.6, "unit": "mmol/L"},
      {"measurement": "Activity", "setting": "[16]", "result": "Active"},
      {"measurement": "inhibition in vivo at 300 µmol/kg", "setting": "[17]", "result": 18.1, "unit": "%"},
      {"measurement": "Activity", "setting": "[18]", "result": 17.8, "unit": "%"},
      {"measurement": "Activity", "setting": "[19]", "result": 0.245, "unit": "g"},
      {"measurement": "Activity", "setting": "[20]", "result": 8.8, "unit": "×10⁶ /uL"},
      {"measurement": "Activity", "setting": "[21]", "result": 64.6, "unit": "%"},
      {"measurement": "Activity", "setting": "[22]", "result": "Active"},
      {"measurement": "Activity", "setting": "[23]", "result": 9.7, "unit": "µmol/L"},
      {"measurement": "Activity", "setting": "[24]", "result": 21.5, "unit": "U/L"},
      {"measurement": "Activity", "setting": "[25]", "result": 300.8, "unit": "×10³ /uL"},
      {"measurement": "fold change (FC)", "setting": "[26]", "result": 9.4},
      {"measurement": "Activity", "setting": "[27]", "result": 1.21, "unit": "g"}
    ]}
  ]
}
